Assay results from patent EP0545103A1, “Insecticidal, acaricidal and molluscicidal 1-(substituted) thioalkylpyrroles” (priority 1991, dated 1993).

Experiments:
Assay type in all cases: in vivo
Design in all cases: key: 0: no effect; 10-25% kill; 26-35% kill; 36-45% kill; 46-55% kill; 56-65% kill; 66-75% kill; 76-85% kill; 86-99% kill; 9: 100% kill
[1] = tested on: Spodoptera eridania, 3rd instar larvae, southern armyworm; experiment: Southern armyworm systemic uptake (stem systemic) test; conditions: cut stem in emulsion 3 days
Excerpt: Spodoptera eridania, systemic uptake, 3rd instar larvae, southern armyworm
Subsequent 10-fold dilutions are made with water as needed. Sieva limabean plants, with the primary leaves expanded to a length of 7-8 cm, are cut off at least 3 cm above the soil level to avoid contamination with soil bacteria which will cause decay of the stem during the test. The cut stem is placed in the test emulsion and wrapped with a bit of cotton to hold the stem off the bottom of the bottle and to limit evaporation. The treated stem is thus maintained for 3 days at 27° C to allow the test compound to be taken up into the plant. Following this, one leaf is removed from the plant and placed in a 100 x 10 mm petri dish with 10 southern armyworms as described above. Mortality counts and observations of feeding damage are made 3 and 5 days later.
(§1) All of the above tests are rated according to the rating scale shown below.

[2] = tested on: Heliothis virescens, egg, tobacco budworm; experiment: Tobacco budworm egg test, dipped cotton leaf and eggs; conditions: mortality rating after 3 days
Experimental: (§2) Test solutions are prepared by dissolving the test compound in a 35% acetone in water mixture to give a concentration of 10,000 ppm. Subsequent dilutions are made with water as needed.
Heliothis virescens, egg, tobacco budworm
A young cotton leaf about 6-7cm in length is dipped in an agitated test suspension for about 3 seconds. Eggs are collected on a cheesecloth and the cloth is cut into 10-20mm squares, each containing approximately 50-100 eggs which are 6-30 hours old. The egg-containing cheesecloth square is similarly dipped in a test suspension and placed on a treated cotton leaf. The combination is dried in a hood and then placed in an 8 ounce Dixie® cup #2168-ST (240ml volume, 6cm tall, 9.5cm top diameter, 8.0cm bottom diameter) into which a 5cm length of damp dental wick has been placed. The cup is covered with a clear plastic lid and held for 3 days, after which mortality counts are made.
as §1

[3] = tested on: Spodoptera eridania, 3rd instar larvae, southern armyworm; experiment: Southern armyworm 3rd instar test, dipped limabean leaf; conditions: for ARMYWORM Day 3: rating at 3 days; for ARMYWORM Day 5: rating at 5 days
Experimental: as §2
Spodoptera eridania, 3rd instar larvae, southern armyworm
A Sieva limabean leaf expanded to 7-8 cm in length is dipped in the test solution with agitation for 3 seconds and allowed to dry in a hood. The leaf is then placed in a 100 x 10 mm petri dish containing a damp filterpaper on the bottom and ten 3rd instar caterpillars. At 3 and 5 days, observations are made of mortality, reduced feeding, or any interference with normal molting.
as §1

[4] = tested on: Diabrotic undecimpunctata howardi, 3rd instar southern corn rootworm; experiment: Southern corn rootworm soil test; conditions: mortality rating after 6 days
Experimental: Diabrotic undecimpunctata howardi, 3rd instar southern corn rootworm
One cc of fine talc is placed in a 30 mL wide-mouth screw-top glass jar. One mL of the appropriate acetone test solution is pipetted onto the talc so as to provide 1.25 and 0.25 mg of active ingredient per jar. The jars are set under a gentle air flow until the acetone is evaporated. The dried talc is loosened, 1 cc of millet seed is added to serve as food for the insects and 25 mL of moist soil is added to each jar. The jar is capped and the contents thoroughly mixed on a Vortex Mixer. Following this, ten 3rd instar rootworms are added to each jar and the jars are loosely capped to allow air exchange for the larvae. The treatments are held for 6 days when mortality counts are made. Missing larvae are presumed dead, since they decompose rapidly and can not be found. The concentrations used in this test correspond approximately to 50 and 10 kg/ha, respectively.
as §1

[5] = tested on: Heliothis virescens, 3rd instar tobacco budworm; experiment: Tobacco budworm 3rd instar test, dipped cotton cotyledons; conditions: mortality rating after 3 days
Experimental: as §2
Heliothis virescens, 3rd instar tobacco budworm
Cotton cotyledons are dipped in the test solution and allowed to dry in a hood. When dry, each is cut into quarters and ten sections are placed individually in 30 mL plastic medicine cups containing a 5-7mm long piece of damp dental wick. One 3rd instar caterpillar is added to each cup and the cup is sealed with MYLAR® film. Treatments are maintained for 3 days before a mortality count and observation of reduction in feeding damage are made.
as §1

[6] = tested on: Spodoptera eridania, 3rd instar larvae, southern armyworm; experiment: Southern armyworm 7-day residual test; conditions: R designates Residual: 7-day residual foliage, concentration not given; for ARMYWORM Day 3 R: rating at 3 days; for ARMYWORM Day 5 R: rating at 5 days
Experimental: as §2
Spodoptera eridania, 3rd instar larvae, southern armyworm, 7-day residual
The limabean leaves treated in the above test are maintained under high intensity lamps in the greenhouse for 7 days. These lamps duplicate the effects of a bright sunny day in June in New Jersey and are kept on for 14 hour day length. After 7 days, the foliage is sampled and assayed as in the above-said test.
as §1

| SMILES | ARMYWORM Stem Sys [1] | TOBACCO BUDWORM Egg ([2]; 1000 ppm) | ARMYWORM Day 3 ([3]; 10 ppm) | ARMYWORM Day 5 ([3]; 10 ppm) | ARMYWORM Day 3 ([3]; 100 ppm) | ARMYWORM Day 5 ([3]; 100 ppm) | ARMYWORM Day 3 ([3]; 1000 ppm) | ARMYWORM Day 5 ([3]; 1000 ppm) | SOUTHERN CORN ROOTWORM ([4]; 50 (ppm as headed)) | TOBACCO BUDWORM 3rd Instar ([5]; 1000 ppm) | SOUTHERN CORN ROOTWORM ([4]; 1 (ppm as headed)) | ARMYWORM Day 3 R [6] | ARMYWORM Day 5 R [6] | TOBACCO BUDWORM 3rd Instar ([5]; 10 ppm) | TOBACCO BUDWORM Egg ([2]; 100 ppm) | TOBACCO BUDWORM Egg ([2]; 300 ppm) | TOBACCO BUDWORM 3rd Instar ([5]; 100 ppm) | SOUTHERN CORN ROOTWORM ([4]; 10 (ppm as headed)) |
| --- | --- | --- | --- | --- | --- | --- | --- | --- | --- | --- | --- | --- | --- | --- | --- | --- | --- | --- |
| CSCn1c(Br)c(Br)c(C#N)c1SC [Example 43] | 0 | 0 | 0 | 0 | 0 | 0 | 9 (100% kill) | 9 (100% kill) | 0 | 0 |  |  |  |  |  |  |  |  |
| N#Cc1c(Br)c(C(F)(F)F)n(CSc2nc3ccccc3o2)c1-c1ccc(Cl)cc1 [Example 6] | 0 | 0 | 0 |  | 9 (100% kill) |  | 9 (100% kill) |  |  |  | 0 | 9 (100% kill) | 9 (100% kill) | 0 |  |  |  |  |
| N#Cc1c(Br)c(Br)n(CSC(=N)N)c1Br [Example 20] |  | 0 | 0 | 0 | 9 (100% kill) | 9 (100% kill) | 9 (100% kill) | 9 (100% kill) | 0 | 9 (100% kill) |  | 6 (66-75% kill) |  | 0 | 0 | 0 | 0 |  |
| CC(C)OP(=S)(OC(C)C)SCn1c(-c2ccc(Cl)cc2)c(C#N)c(Br)c1C(F)(F)F [Example 27] | 0 | 0 | 0 | 0 | 9 (100% kill) | 9 (100% kill) | 9 (100% kill) | 9 (100% kill) | 9 (100% kill) | 9 (100% kill) | 6 (66-75% kill) | 9 (100% kill) | 9 (100% kill) | 0 |  |  | 7 (76-85% kill) | 7 (76-85% kill) |
| N#Cc1c(Br)c(C(F)(F)F)n(CSc2nc3ccccc3[nH]2)c1-c1ccc(Cl)cc1 [Example 9] | 0 | 0 |  |  | 0 | 0 | 6 (66-75% kill) | 7 (76-85% kill) | 0 | 0 |  | 9 (100% kill) | 9 (100% kill) |  |  |  | 0 |  |
| N#Cc1c(Br)c(C(F)(F)F)n(CS(=O)(=O)c2ccccc2)c1-c1ccc(Cl)cc1 [Example 46] | 0 | 0 | 0 | 0 | 0 | 0 | 9 (100% kill) | 9 (100% kill) | 8 (86-99% kill) |  | 0 | 4 (46-55% kill) | 9 (100% kill) |  |  |  |  | 0 |
| CN(C)C(=S)SCn1c(Br)c(Br)c(C#N)c1Br [Example 31] | 0 | 0 | 0 | 0 | 9 (100% kill) | 9 (100% kill) | 9 (100% kill) | 9 (100% kill) | 0 | 6 (66-75% kill) |  | 9 (100% kill) | 9 (100% kill) |  |  |  |  |  |
| N#Cc1c(Br)c(Br)n(CSCc2ccccc2)c1Br [Example 40] | 0 | 0 | 0 | 0 | 0 | 0 | 9 (100% kill) | 9 (100% kill) | 0 | 0 |  | 0 |  |  |  |  | 0 |  |
| CCN(CC)C(=S)SCn1c(-c2ccc(Cl)cc2)c(C#N)c(Br)c1C(F)(F)F [Example 26] | 0 | 0 | 9 (100% kill) | 9 (100% kill) | 9 (100% kill) | 9 (100% kill) | 9 (100% kill) | 9 (100% kill) |  | 9 (100% kill) | 0 | 9 (100% kill) | 9 (100% kill) | 9 (100% kill) |  |  | 9 (100% kill) |  |
| CN(C)C(=S)SCn1c(Cl)c(Cl)c(C#N)c1-c1ccc(Cl)c(Cl)c1 [Example 32] | 0 | 0 | 0 | 0 |  |  |  |  | 0 | 0 |  | 0 | 0 |  |  |  | 0 |  |
